Experimental data published in PubChem BioAssay AID180 (DTP/NCI, 2004).
Where “and” joins values, the source holds several entries; their conditions need not be identical. Equal values may be shown once.

Test system: BDF1 mice, Adenocarcinoma 755 s.c., tumor weight T/C
Assay: NCI In Vivo Anticancer Drug Screen. Data for tumor model Adenocarcinoma 755 (subcutaneous) in B6D2F1 (BDF1) mice
Conditions: endpoint: mean tumor weight, higher = larger tumour
How it was run: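 Readout: T/C, i.e. treated-group measurement over vehicle-control measurement. Endpoint is survival or tumor size in tumor-bearing mice given compound.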

[1] = dose: 75.0 mg/kg/injection, schedule: Q01DX011 (ip), vehicle: methylcellulose (MC)
[2] = dose: 25.0 mg/kg/injection, schedule: Q01DX011 (ip), vehicle: saline

OCCNc1ncnc2c1ncn2C1OC(CO)C(O)C1O (stereo not given)
T/C (dose: 25.0 mg/kg/injection, schedule: Q01DX011 (ip), vehicle: methylcellulose (MC)): 55 % of control | T/C (dose: 50.0 mg/kg/injection, schedule: Q01DX011 (ip), vehicle: methylcellulose (MC)): 49 % of control | T/C [1]: 17 % of control | T/C (dose: 100.0 mg/kg/injection, schedule: Q01DX011 (ip), vehicle: methylcellulose (MC)): 27 % of control | T/C (dose: 200.0 mg/kg/injection, schedule: Q01DX011 (ip), vehicle: methylcellulose (MC)): 7 % of control

CS(=O)(=O)OCC(O)C(O)COS(C)(=O)=O (stereo not given)
T/C (dose: 125.0 mg/kg/injection, schedule: Q01DX011 (ip), vehicle: carboxymethylcellulose (CMC)): 65 % of control | T/C (dose: 200.0 mg/kg/injection, schedule: Q01DX011 (ip), vehicle: saline): 66 % of control | T/C (dose: 250.0 mg/kg/injection, schedule: Q01DX011 (ip), vehicle: carboxymethylcellulose (CMC)): 20 % of control | T/C (dose: 500.0 mg/kg/injection, schedule: Q01DX011 (ip), vehicle: carboxymethylcellulose (CMC)): 6 % of control | T/C (dose: 800.0 mg/kg/injection, schedule: Q01DX011 (ip), vehicle: saline): 17 % of control

c1nc(N2CC2)c2cnn(C3CCCCO3)c2n1 (stereo not given)
T/C (dose: 1.5 mg/kg/injection, schedule: Q01DX011 (ip), vehicle: other): 101 % of control | T/C (dose: 3.0 mg/kg/injection, schedule: Q01DX011 (ip), vehicle: other): 102 % of control | T/C (dose: 6.0 mg/kg/injection, schedule: Q01DX011 (ip), vehicle: other): 81 % of control | T/C (dose: 12.0 mg/kg/injection, schedule: Q01DX011 (ip), vehicle: other): 99 % of control | T/C (dose: 12.5 mg/kg/injection, schedule: Q01DX011 (ip), vehicle: saline): 30 % of control | T/C (dose: 25.0 mg/kg/injection, schedule: Q01DX011 (ip), vehicle: other): 113 % of control | T/C [2]: 45 % of control

c1ccc(CSc2ncnc3nc[nH]c23)cc1
T/C (dose: 1.5 mg/kg/injection, schedule: Q01DX011 (ip), vehicle: alkali diluted with saline): 2 % of control | T/C (dose: 1.5 mg/kg/injection, schedule: Q01DX011 (oral), vehicle: alkali diluted with saline): 22 % of control | T/C (dose: 2.5 mg/kg/injection, schedule: Q01DX011 (ip), vehicle: saline): 35 % of control | T/C (dose: 3.0 mg/kg/injection, schedule: Q01DX011 (ip), vehicle: alkali diluted with saline): 44 % of control | T/C (dose: 3.0 mg/kg/injection, schedule: Q01DX011 (ip), vehicle: carboxymethylcellulose (CMC)): 59 % of control | T/C (dose: 3.0 mg/kg/injection, schedule: Q01DX011 (oral), vehicle: alkali diluted with saline): 28 % of control | T/C (dose: 3.1 mg/kg/injection, schedule: Q01DX011 (ip), vehicle: carboxymethylcellulose (CMC)): 43 % of control | T/C (dose: 5.0 mg/kg/injection, schedule: Q01DX011 (ip), vehicle: saline): 12 % of control | T/C (dose: 6.0 mg/kg/injection, schedule: Q01DX006 (iv), vehicle: saline): 17 % of control | T/C (dose: 6.0 mg/kg/injection, schedule: Q01DX011 (im), vehicle: saline): 12 % of control | T/C (dose: 6.0 mg/kg/injection, schedule: Q01DX011 (ip), vehicle: alkali diluted with saline): 16 % of control | T/C (dose: 6.0 mg/kg/injection, schedule: Q01DX011 (ip), vehicle: carboxymethylcellulose (CMC)): 22 % of control and 32 % of control | T/C (dose: 6.0 mg/kg/injection, schedule: Q01DX011 (ip), vehicle: saline): 2 % of control | T/C (dose: 6.0 mg/kg/injection, schedule: Q01DX011 (oral), vehicle: alkali diluted with saline): 16 % of control | T/C (dose: 6.0 mg/kg/injection, schedule: Q01DX011 (sc), vehicle: steriod suspending solution): 9 % of control | T/C (dose: 6.2 mg/kg/injection, schedule: Q01DX011 (ip), vehicle: carboxymethylcellulose (CMC)): 15 % of control | T/C (dose: 10.0 mg/kg/injection, schedule: Q01DX011 (ip), vehicle: saline): 5 % of control | T/C (dose: 11.0 mg/kg/injection, schedule: Q07DX002 (ip), vehicle: alkali diluted with saline): 39 % of control | T/C (dose: 12.0 mg/kg/injection, schedule: Q01DX006 (iv), vehicle: saline): 2 % of control | T/C (dose: 12.0 mg/kg/injection, schedule: Q01DX011 (im), vehicle: saline): 3 % of control | T/C (dose: 12.0 mg/kg/injection, schedule: Q01DX011 (ip), vehicle: carboxymethylcellulose (CMC)): 3 % of control | T/C (dose: 12.0 mg/kg/injection, schedule: Q01DX011 (oral), vehicle: alkali diluted with saline): 54 % of control | T/C (dose: 12.0 mg/kg/injection, schedule: Q01DX011 (sc), vehicle: steriod suspending solution): 5 % of control | T/C (dose: 12.5 mg/kg/injection, schedule: Q01DX011 (ip), vehicle: carboxymethylcellulose (CMC)): 3 % of control | T/C (dose: 13.0 mg/kg/injection, schedule: Q01DX011 (ip), vehicle: carboxymethylcellulose (CMC)): 17 % of control | T/C (dose: 19.0 mg/kg/injection, schedule: Q03DX004 (ip), vehicle: carboxymethylcellulose (CMC)): 31 % of control | T/C (dose: 22.0 mg/kg/injection, schedule: Q07DX002 (ip), vehicle: alkali diluted with saline): 50 % of control | T/C (dose: 25.0 mg/kg/injection, schedule: Q01DX006 (iv), vehicle: carboxymethylcellulose (CMC)): 9 % of control | T/C (dose: 25.0 mg/kg/injection, schedule: Q01DX006 (iv), vehicle: saline): 3 % of control | T/C (dose: 25.0 mg/kg/injection, schedule: Q01DX011 (im), vehicle: saline): 1 % of control | T/C [2]: 2 % of control | T/C (dose: 25.0 mg/kg/injection, schedule: Q01DX011 (oral), vehicle: carboxymethylcellulose (CMC)): 10 % of control | T/C (dose: 25.0 mg/kg/injection, schedule: Q01DX011 (sc), vehicle: carboxymethylcellulose (CMC)): 14 % of control | T/C (dose: 25.0 mg/kg/injection, schedule: Q01DX011 (sc), vehicle: steriod suspending solution): 3 % of control | T/C (dose: 38.0 mg/kg/injection, schedule: Q03DX004 (ip), vehicle: carboxymethylcellulose (CMC)): 2 % of control | T/C (dose: 44.0 mg/kg/injection, schedule: Q07DX002 (ip), vehicle: alkali diluted with saline): 43 % of control | T/C (dose: 44.0 mg/kg/injection, schedule: Q07DX002 (ip), vehicle: carboxymethylcellulose (CMC)): 5 % of control | T/C (dose: 50.0 mg/kg/injection, schedule: Q01DX006 (iv), vehicle: carboxymethylcellulose (CMC)): 17 % of control | T/C (dose: 50.0 mg/kg/injection, schedule: Q01DX011 (im), vehicle: carboxymethylcellulose (CMC)): 8 % of control | T/C (dose: 50.0 mg/kg/injection, schedule: Q01DX011 (ip), vehicle: carboxymethylcellulose (CMC)): 3 % of control and 8 % of control | T/C (dose: 50.0 mg/kg/injection, schedule: Q01DX011 (oral), vehicle: carboxymethylcellulose (CMC)): 6 % of control | T/C (dose: 50.0 mg/kg/injection, schedule: Q01DX011 (sc), vehicle: steriod suspending solution): 1 % of control | T/C (dose: 75.0 mg/kg/injection, schedule: Q03DX004 (ip), vehicle: carboxymethylcellulose (CMC)): 2 % of control and 13 % of control | T/C (dose: 88.0 mg/kg/injection, schedule: Q07DX002 (ip), vehicle: alkali diluted with saline): 16 % of control | T/C (dose: 88.0 mg/kg/injection, schedule: Q07DX002 (ip), vehicle: carboxymethylcellulose (CMC)): 45 % of control | T/C (dose: 100.0 mg/kg/injection, schedule: Q01DX011 (im), vehicle: carboxymethylcellulose (CMC)): 1 % of control and 2 % of control | T/C (dose: 100.0 mg/kg/injection, schedule: Q01DX011 (ip), vehicle: carboxymethylcellulose (CMC)): 2 % of control | T/C (dose: 100.0 mg/kg/injection, schedule: Q01DX011 (sc), vehicle: steriod suspending solution): 2 % of control | T/C (dose: 175.0 mg/kg/injection, schedule: Q07DX002 (ip), vehicle: carboxymethylcellulose (CMC)): 3 % of control and 4 % of control | T/C (dose: 200.0 mg/kg/injection, schedule: Q01DX011 (im), vehicle: carboxymethylcellulose (CMC)): 11 % of control and 17 % of control | T/C (dose: 200.0 mg/kg/injection, schedule: Q01DX011 (oral), vehicle: carboxymethylcellulose (CMC)): 1 % of control and 6 % of control | T/C (dose: 200.0 mg/kg/injection, schedule: Q01DX011 (sc), vehicle: carboxymethylcellulose (CMC)): 17 % of control | T/C (dose: 300.0 mg/kg/injection, schedule: Q03DX004 (ip), vehicle: carboxymethylcellulose (CMC)): 6 % of control | T/C (dose: 350.0 mg/kg/injection, schedule: Q07DX002 (ip), vehicle: carboxymethylcellulose (CMC)): 1 % of control and 6 % of control | T/C (dose: 600.0 mg/kg/injection, schedule: Q03DX004 (ip), vehicle: alkali diluted with saline): 3 % of control | T/C (dose: 700.0 mg/kg/injection, schedule: Q07DX002 (ip), vehicle: carboxymethylcellulose (CMC)): 1 % of control

Cn1c(=O)c2c(nc(C(O)(c3ccccc3)c3ccccc3)n2C)n(C)c1=O
T/C (dose: 40.0 mg/kg/injection, schedule: Q01DX011 (ip), vehicle: methylcellulose (MC)): 122 % of control | T/C [1]: 66 % of control

NOCC(=O)O
T/C (dose: 6.25 mg/kg/injection, schedule: Q01DX011 (ip), vehicle: water): 62 % of control | T/C (dose: 12.5 mg/kg/injection, schedule: Q01DX011 (ip), vehicle: other): 54 % of control | T/C (dose: 12.5 mg/kg/injection, schedule: Q01DX011 (ip), vehicle: water): 68 % of control and 70 % of control | T/C (dose: 18.75 mg/kg/injection, schedule: Q01DX011 (ip), vehicle: other): 65 % of control | T/C (dose: 25.0 mg/kg/injection, schedule: Q01DX011 (ip), vehicle: water): 29 % of control
